# Source: patent US20190124918A1, “BIOFILM FORMATION INHIBITOR AND BIOFILM FORMATION INHIBITING COMPOSITION” (KAO CORPORATION, priority 2016, published 2019)
# What was measured:
# Format in all cases: cell-based
# [1] = test system: Pseudomonas PAO1 strain (ATCC 15692); experiment: Amount of biofilm formed (crystal violet, OD570), 96-well microplate culture
# Procedure, shortened: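 PAO1 suspension in Mueller Hinton Broth (OD600 1/10^6) grown stationary 24 h at 30 °C with compounds dried from ethanol plus DMSO, final about 7–333 ppm or as listed. Biofilm stained with 0.1% crystal violet, ethanol-eluted, OD570; inhibition % = {1−(compound OD570/ethanol-control OD570)}×100.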
# [2] = test system: cooling water taken from a water cooling tower; experiment: Aqueous system model (annular reactor): number of bacterial cells in water at inlet and outlet (R2A agar); details: Test Example 4; 15 ppm in cooling water; solvent control also about 10^4
# Protocol: Biofilm formation inhibitory activity of p-toluquinone (Tokyo Kasei) was evaluated by an aqueous system model using an annular reactor (Art Science Co., Ltd.) having a 100 mL-volume culture tank. In the culture tank of the annular reactor, a cylindrical rotating body rotating at a speed of 160 rounds per minute was installed. To the rotating body, 12 test pieces were attached in advance. These test pieces were taken out at predetermined time intervals and biofilm formed on the test pieces was quantified. From a water cooling tower provided on a building rooftop and actually used, cooling water was taken and supplied to the annular reactor culture vessel (maintained at 30° C.) at a flow rate of 10 mL per minute; at the same time, an ethanol solution (15 g/L) of p-toluquinone was separately supplied to the annular reactor culture vessel by a syringe pump YSP-201 (manufactured by YMC) at a flow rate of 10 μL per minute (p-toluquinone concentration in cooling water in the culture tank was 15 ppm). The test pieces (n=2) taken out from the culture tank at predetermined time intervals were stained with 0.1% crystal violet, thoroughly washed twice with physiological saline and recovered in ethanol (15 mL). The absorbance (OD570) was measured to obtain the amount of the biofilm formed. […] Thereafter, the number of bacteria cells was measured. […]
# [3] = test system: biofilm-forming microbe isolated from cooling water taken from a water cooling tower; experiment: Biofilm inhibition test, quinone-based compound and organic solvent (OD570); details: alone or added as test solution in organic solvent, no addition gave 2.831
# Protocol: A biofilm-forming microbe (microbe providing a OD570 value of 0.3 or more in the test for determining the amount of biofilm in the following section 4-3) isolated from cooling water taken from a water cooling tower was cultured in R2A culture medium at 30° C. for 16 hours while shaking. The turbidity (OD600) of the resultant culture solution was measured. The culture solution was diluted with R2A culture medium to prepare a suspension of 10^3 cfu/mL.
# The suspension of a test microbe prepared in the above section 4-1) was added in individual wells of a 96 well microplate in an amount of 150 μL. Thereafter, the test solution prepared in the above section 2) was add and culture was initiated.
# The 96 well microplate was subjected to stationary culture performed at 30° C. for 48 hours. The culture solution was removed and the resultant microplate was washed with water. Subsequently, each well was stained with 0.1% crystal violet and 200 μL of ethanol was added. The absorbance (OD570) was measured to obtain the amount of biofilm (BF) formed.
structure (smiles),measurement,setting,value
"CC1=CC(=O)C=CC1=O [Compound a, p-Toluquinone]",The amount of the biofilm formed OD570,"[1]; final concentration 7 ppm, EtOH control 0.9163",0.7549
same,BF inhibition (%),[1]; final concentration 17 ppm,18.6%
same,The amount of the biofilm formed OD570,"[1]; final concentration 20 ppm, EtOH control 0.9564",0.8231
same,BF inhibition (%),[1]; final concentration 33 ppm,36.6%
same,The amount of the biofilm formed OD570,"[1]; final concentration 33 ppm, EtOH control 0.8974",0.7891
same,BF inhibition (%),[1]; final concentration 66 ppm,39.9%
same,The amount of the biofilm formed OD570,"[1]; final concentration 67 ppm, EtOH control 0.8853",0.7094
same,BF inhibition (%),[1]; final concentration 99 ppm,73.7%
same,BF inhibition (%),[1]; final concentration 116 ppm,86.3%
same,BF inhibition (%),[1]; final concentration 132 ppm,85.1%
same,The amount of the biofilm formed OD570,"[1]; final concentration 200 ppm, EtOH control 0.9248",0.7089
same,The amount of the biofilm formed OD570,"[1]; final concentration 333 ppm, EtOH control 0.9562",0.1222
same,biofilm formation (in words),[1]; high concentration range of 200 ppm or more,inhibited
same,biofilm formation (in words),[1]; low concentration range of less than 200 ppm,inhibited
same,number of bacterial cells at the inlet or outlet of the reactor,[2],about 10^4 cells/mL
same,OD570,[3]; Toluquinone 10 ppm,0.119
same,OD570,[3]; Toluquinone 20 ppm,0.083
